Experimental findings from patent US7795456B2, “Insecticidal N-substituted sulfoximines” (Dow AgroSciences LLC, priority 2004, dated 2010) are described below.

In series [1] the test system is yellow fever mosquito (Aedes aegypti) larvae. Nature of the series: whole plant or invertebrate. Conditions: 72 h, read-out: YFM 26: % control at 26 ppm against yellow fever mosquito in submerge tests. In kind it is in vivo.
For series [2], the system named is cotton aphid (Aphis gossypii). Nature of the series: Insecticidal test for cotton aphid, foliar spray on squash. Particulars: for pest or weed control at 50 ppm / pest or weed control at 200 ppm: Aphis gossypii, foliar, 72 h; for pest or weed control at 50 ppm: read-out: CA 50: % control at 50 ppm against cotton aphid in foliar spray tests; for pest or weed control at 200 ppm: read-out: CA 200: % control at 200 ppm against cotton aphid in foliar spray tests.

In series [3] the test system is Colorado potato beetle (Leptinotarsa decemlineata). Nature of the series: Insecticidal test for Colorado potato beetle, foliar spray on tomato. In kind it is in vivo. Conditions: for % Control at ppm, against Colorado potato beetle: 3.13: 3.13 ppm; for % Control at ppm, against Colorado potato beetle: 12.5: 12.5 ppm; for CPB 50: % control at 50 ppm against Colorado potato beetle in foliar spray tests: 5 days, Corrected % Control; for CPB 50: % control at 50 ppm against Colorado potato beetle in foliar spray tests / % Control at ppm, against Colorado potato beetle: 50: 50 ppm. As for the experimental part: Insecticidal Test for Colorado Potato Beetle (Leptinotarsa decemlineata).
Tomato seedlings at the growth stage of three or four expanding leaves were used. […] Treated plants were held in the laboratory for approximately 3 h to allow drying before the upper portion (with two or three leaves) of a plant was cut and placed in a 10×2.5-cm petri dish containing approximately 10 mL of solidified 1% agar at the bottom. Five 2nd or 3rd instar larvae were placed on the treated plant tissue, and the petri dishes were covered and held in an incubator at 25° C. At 5 days following treatment, insecticidal activity was evaluated by counting the number of live larvae in each dish.

Series [4] has as its system fruit fly (Drosophila melanogaster). Particulars: for FF SYM: % showing intoxicated symptoms at 25 μg/cm2 against fruit fly in dietary tests: 25 μg/cm2, 4 h; for FF 25: % mortality at 25 μg/cm2 against fruit fly in dietary tests: 25 μg/cm2, 48 h.
For series [5], the system named is beet armyworm (Spodoptera exigua). Nature of the series: Insecticidal test for beet armyworm in injection assays. Conditions: 1 h, read-out: BAW SYM: % showing intoxicated symptoms at 10 μg/larva against beet armyworm in injection tests.
Series [6] shares this test system. Conditions: 50 μg/cm2, second-instar larvae, 5 days.
Series [7] relates to sweet potato whitefly (Bemisia tabaci). Description: Insecticidal test for sweet potato whitefly, foliar spray on cotton. Conditions: for % Control at ppm, against sweet potato whitefly: 0.4-0.78: 0.4-0.78 ppm; for % Control at ppm, against sweet potato whitefly: 0.4-0.78 / % Control at ppm, against sweet potato whitefly: 2-3.13 / % Control at ppm, against sweet potato whitefly: 10-12.5 / % Control at ppm, against sweet potato whitefly: 50: rundown assay; for % Control at ppm, against sweet potato whitefly: 2-3.13: 2-3.13 ppm; for % Control at ppm, against sweet potato whitefly: 10-12.5: 10-12.5 ppm; for % Control at ppm, against sweet potato whitefly: 50: 50 ppm; for pest or weed control at 200 ppm: Bemisia tabaci, in Gossypium hirsutum, foliar, read-out: SPW 200: % control at 200 ppm against sweet potato whitefly in foliar spray tests.

Series [8] deals with corn earworm (Helicoverpa zea). Conditions: 50 μg/cm2, second-instar larvae, 5 days.
The test system of series [9] is green peach aphid (Myzus persicae). Nature of the series: Insecticidal test for green peach aphid, foliar spray on cabbage seedlings. Particulars: rundown assay, 3 days.

For `CC(c1ccc(Cl)nc1)S(C)(=O)=NC#N` (stereo not drawn) [Compound 8, [1-(6-chloropyridin-3-yl)ethyl](methyl)oxido-λ^4-sulfanylidenecyanamide], the pest or weed control at 26 ppm in series [1] was in the range of 90 to 100%. Also, in [2], the pest or weed control at 50 ppm was 90 to 100% and the pest or weed control at 200 ppm was in the range of 90 to 100%. In addition, in [3] (rundown assay), the “% Control at ppm, against Colorado potato beetle: 3.13” value was “D (60-69)”; the “% Control at ppm, against Colorado potato beetle: 12.5” value was “A (90-100)”; the “% Control at ppm, against Colorado potato beetle: 50” value was “A (90-100)”. For the same compound, the “CPB 50: % control at 50 ppm against Colorado potato beetle in foliar spray tests” value (shortened to “CPB 50: % control at 50 ppm”) in series [3] is “A (90-100)”. Besides, in series [4], the “FF SYM: % showing intoxicated symptoms at 25 μg/cm2 against fruit fly in dietary tests” value is “A (90-100)” and the “FF 25: % mortality at 25 μg/cm2 against fruit fly in dietary tests” value (shortened to “FF 25: % mortality at 25 μg/cm2”) is listed as “A (90-100)”. Moreover, the pest or weed control at 0.01 mg in [5] was in the range of 50 to 59%. Besides, the “BAW 50: % mortality at 50 μg/cm2 against beet armyworm in dietary tests” value (shortened to “BAW 50: % mortality at 50 μg/cm2”) in series [6] was “G (Inactive)”. In series [7], the “% Control at ppm, against sweet potato whitefly: 0.4-0.78” value was “A (90-100)”; the “% Control at ppm, against sweet potato whitefly: 2-3.13” value is “A (90-100)”; the “% Control at ppm, against sweet potato whitefly: 10-12.5” value is “A (90-100)”; the “% Control at ppm, against sweet potato whitefly: 50” value is given as “A (90-100)”. Besides, the pest or weed control at 200 ppm in series [7] lay within 90 to 100%. Further, the “CEW 50: % mortality at 50 μg/cm2 against corn earworm in dietary tests” value (“CEW 50: % mortality at 50 μg/cm2” below) in series [8] is “G (Inactive)”.
As to `CS(=O)(Cc1ccc(Cl)nc1)=NC#N` (stereo not drawn) [Compound 10, [(6-Chloropyridin-3-yl)methyl](methyl)oxido-λ^4-sulfanylidene-cyanamide], the pest or weed control at 26 ppm in [1] lay in the range of 90 to 100%. Besides, in [2], the pest or weed control at 50 ppm was 90 to 100% and the pest or weed control at 200 ppm lay in the range of 90 to 100%. For the same compound, in [3] (rundown assay), the “% Control at ppm, against Colorado potato beetle: 12.5” value was “E (50-59)” and the “% Control at ppm, against Colorado potato beetle: 50” value is listed as “B (80-89)”. In addition, the “CPB 50: % control at 50 ppm” value in [3] is “B (80-89)”. For the same compound, in series [4], the “FF SYM: % showing intoxicated symptoms at 25 μg/cm2 against fruit fly in dietary tests” value is reported as “A (90-100)” and the “FF 25: % mortality at 25 μg/cm2” value is recorded as “A (90-100)”. In addition, the pest or weed control at 0.01 mg in series [5] is below 50%. Moreover, the “BAW 50: % mortality at 50 μg/cm2” value in series [6] is “G (Inactive)”. Further, in series [7], the “% Control at ppm, against sweet potato whitefly: 0.4-0.78” value is on record as “F (Less than 50)”; the “% Control at ppm, against sweet potato whitefly: 2-3.13” value was “D (60-69)”; the “% Control at ppm, against sweet potato whitefly: 10-12.5” value is recorded as “A (90-100)”; the “% Control at ppm, against sweet potato whitefly: 50” value was “A (90-100)”. Also, the pest or weed control at 200 ppm in series [7] was 90 to 100%. In addition, the “CEW 50: % mortality at 50 μg/cm2” value in [8] is given as “G (Inactive)”.
Regarding `O=[N+]([O-])N=[S@@]1(=O)CCCC1Cc1ccc(Cl)nc1` (stereo partly drawn) [Compound 41], the pest or weed control at 26 ppm in [1] lay in the range of 90 to 100%. The “% Control at ppm, against cotton aphid: 0.049” value in [2] (0.049 ppm, rundown assay) is on record as “C (70-79)”. Moreover, the “% Control at ppm, against cotton aphid: 0.195” value in series [2] (0.195 ppm, rundown assay) is “A (90-100)”. The “% Control at ppm, against cotton aphid: 0.78” value in [2] (0.78 ppm, rundown assay) is on record as “A (90-100)”. Besides, the “% Control at ppm, against cotton aphid: 3.12” value in series [2] (3.12 ppm, rundown assay) is “A (90-100)”. Further, the “% Control at ppm, against cotton aphid: 12.5” value in [2] (12.5 ppm, rundown assay) is reported as “A (90-100)”. Further, the “% Control at ppm, against cotton aphid: 50” value in [2] (50 ppm, rundown assay) is recorded as “A (90-100)”. In [2], the pest or weed control at 50 ppm was 90 to 100% and the pest or weed control at 200 ppm lay in the range of 90 to 100%. Also, in series [3] (0.78 ppm, rundown assay), the “% Control at ppm, against Colorado potato beetle: 0.78” value was “F (Less than 50)”. Moreover, in series [3] (rundown assay), the “% Control at ppm, against Colorado potato beetle: 3.13” value was “F (Less than 50)”; the “% Control at ppm, against Colorado potato beetle: 12.5” value is on record as “D (60-69)”; the “% Control at ppm, against Colorado potato beetle: 50” value is “A (90-100)”. The “CPB 50: % control at 50 ppm” value in series [3] was “A (90-100)”. The “FF 25: % mortality at 25 μg/cm2” value in [4] is “F (Less than 50)”. In addition, in [9] (0.049 ppm), the “% Control at ppm, against green peach aphid: 0.049” value was “F (Less than 50)”. Moreover, the “% Control at ppm, against green peach aphid: 0.195” value in series [9] (0.195 ppm) is recorded as “F (Less than 50)”. Moreover, the “% Control at ppm, against green peach aphid: 0.78” value in series [9] (0.78 ppm) was “E (50-59)”. In series [9] (3.12 ppm), the “% Control at ppm, against green peach aphid: 3.12” value is listed as “D (60-69)”. Also, the “% Control at ppm, against green peach aphid: 12.5” value in series [9] (12.5 ppm) was “A (90-100)”. Moreover, the “% Control at ppm, against green peach aphid: 50” value in series [9] (50 ppm) is given as “A (90-100)”. Besides, the “BAW 50: % mortality at 50 μg/cm2” value in series [6] was “G (Inactive)”. The pest or weed control at 200 ppm in series [7] was in the range of 90 to 100%. Moreover, the “CEW 50: % mortality at 50 μg/cm2” value in [8] was “G (Inactive)”.
